Experimental findings from patent publication US20230303552A1, “ARYLSULFONYL DERIVATIVES AND THEIR USE AS MUSCARINIC ACETYLCHOLINE RECEPTOR M5 INHIBITORS” (Vanderbilt University, priority 2020, published 2023) are described below.

This test concerns the target T1, human M5 receptors (hM5) (Homo sapiens, UniProt P08912).
T1 construct: expressed in transfected cells
T1 sequence (P08912 1-532): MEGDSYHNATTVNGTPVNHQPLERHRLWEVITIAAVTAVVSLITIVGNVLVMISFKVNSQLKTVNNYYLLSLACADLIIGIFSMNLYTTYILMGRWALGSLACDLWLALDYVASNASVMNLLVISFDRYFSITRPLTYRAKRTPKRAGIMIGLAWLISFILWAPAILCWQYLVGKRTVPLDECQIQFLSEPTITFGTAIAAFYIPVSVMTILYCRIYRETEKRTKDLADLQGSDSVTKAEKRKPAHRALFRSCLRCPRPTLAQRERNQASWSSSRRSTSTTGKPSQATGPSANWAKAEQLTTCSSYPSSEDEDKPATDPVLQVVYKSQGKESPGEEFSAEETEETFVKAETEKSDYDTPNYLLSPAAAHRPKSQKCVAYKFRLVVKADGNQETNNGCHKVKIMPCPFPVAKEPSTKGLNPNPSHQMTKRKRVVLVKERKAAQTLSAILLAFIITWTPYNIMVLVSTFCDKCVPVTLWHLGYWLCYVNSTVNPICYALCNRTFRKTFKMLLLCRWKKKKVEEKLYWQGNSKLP
Put plainly: Cell-based functional calcium mobilization assay of mAChR M5 activity (inhibition of EC80 acetylcholine response) in CHO cells. Conditions: CHO cells stably expressing hM5; for pIC50: calcium flux (Fluo-4), EC80 acetylcholine addition; for EC80 MIN: minimum of EC80 acetylcholine response, normalized to maximum acetylcholine response. The essentials:
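CHO cells stably expressing human M5, loaded with Fluo-4 AM in HBSS/20 mM HEPES/2.5 mM probenecid pH 7.4. Compound added 140 s before acetylcholine EC20, then EC80 added 125 s later. Calcium flux normalized to maximal acetylcholine response; IC50 from ten-point curves in the EC80 window.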

SMILES strings stand for the structures. pIC50: −log10 of the molar value.

By pIC50 is commonly meant the IC50 on a negative log10 scale, so that one unit is a factor of ten. For the compound `Cc1cccc(S(=O)(=O)N2CCC(C(=O)Nc3ccc4scnc4c3)CC2)c1` [Compound 31, N-(benzo[d]thiazol-5-yl)-1-(m-tolylsulfonyl)piperidine-4-carboxamide], the pIC50 is 5.04 and the “EC80 MIN” value is given as 5%.
As for `O=C(Nc1ccc2scnc2c1)C1CCN(S(=O)(=O)c2cc3c(cc2F)OCC3)CC1(F)F` (stereo not shown) [Compound 147, N-(benzo[d]thiazol-5-yl)-3,3-difluoro-1-((6-fluoro-2.3-dihydrobenzofuran-5-yl)sulfonyl)piperidine-4-carboxamide], the pIC50 is 6.39 and the “EC80 MIN” value was determined as 2%.
On the same counts, the results for `Cc1nn(C)cc1S(=O)(=O)N1CC[C@@H](C(=O)Nc2ccc3scnc3c2)C1` [Compound 137, (R)-N-(benzo[d]thiazol-5-yl)-1-((1,3-dimethyl-1H-pyrazol-4-yl)sulfonyl)pyrrolidine-3-carboxamide] are below 5.00 and 6%.
In the same order, the values of `COc1cccc(S(=O)(=O)N2CCC(C(=O)Nc3ccc4scnc4c3)CC2)c1` [Compound 34, N-(benzo[d]thiazol-5-yl)-1-((3-methoxyphenyl)sulfonyl)pi pendine-4-carboxamide] are below 5.00 and 18%.
Take `CC1(C(=O)Nc2ccc3scnc3c2)CCN(S(=O)(=O)c2ccc3ncsc3c2)CC1` [Compound 105, N-(benzo[d]thiazol-5-yl)-1-(benzo[d]thiazol-6-ylsulfonyl)-4-methylpiperidine-4-carboxamide]: the negative-log IC50 (pIC50) was below 5.00 and the “EC80 MIN” value came to 25%.
Consider `O=C(Nc1ccc2scnc2c1)C1CCN(S(=O)(=O)c2cccc(F)c2)CC1` [Compound 63, N-(benzo[d]thiazol-5-yl)-1-((3-fluorophenyl)sulfonyl)piper idine-4-carboxamide], for which the pIC50 was 5.59 and the “EC80 MIN” value is recorded as 2%.
On the same counts, the results for `O=C(Nc1ccc2scnc2c1)C1CCN(S(=O)(=O)c2cccc3ncccc23)CC1` [Compound 46, N-(benzo[d]thiazol-5-yl)-1-(quinolin-5-ylsulfonyl)piperidine-4-carboxamide] are below 5.00 and 37%.
Regarding `Cn1cnc2cc(S(=O)(=O)N3CCC(C(=O)Nc4ccc5scnc5c4)CC3)ccc21` [Compound 27, N-(benzo[d]thiazol-5-yl)-1-((1-methyl-1H-benzo[d]imidazol-5-yl)sulfonyl)piperidine-4-carboxamide], the pIC50 was below 5.00 and the “EC80 MIN” value is reported as 42%.
Consider `O=C(Nc1ccc2scnc2c1)C1CCN(S(=O)(=O)c2cccnc2)CC1` [Compound 18, N-(benzo[d]thiazol-5-yl)-1-(pyridin-3-ylsulfonyl)piperidine-4-carboxamide], for which the pIC50 was 7.25 and the “EC80 MIN” value stood at 2%.
Consider `CC(=O)N(C(=O)C1CCN(S(=O)(=O)c2ccc3c(c2)CCO3)CC1)c1ccc2scnc2c1` [Compound 85, N-Acetyl-N-(Benzo[d]thiazol-5-yl)-1-((2,3-Dihydrobenzofuran-5-yl)Sulfonyl)Piperidine-4-Carboxamide], for which the pIC50 was 5.76 and the “EC80 MIN” value is on record as 3%.
On the same counts, the results for `Cc1noc(C)c1S(=O)(=O)N1CC[C@@H](C(=O)Nc2ccc3scnc3c2)C1` [Compound 151, (R)-N-(benzo[d]thiazo1-5-yl)-1-((3,5-dimethylisoxazol-4-yl)sulfonyl)pyrrolidine-3-carboxamide] are 5.42 and 5%.
Turning to `O=C(Nc1ccc2scnc2c1)C1CCN(S(=O)(=O)c2ccc(C(F)(F)F)nc2)CC1` [Compound 11, N-(benzo[d]thiazol-5-yl)-1-((6-(trifluoromethyl)pyridin-3-yl)sulfonyl)piperidine-4-carboxamide], the pIC50 is below 5.00 and the “EC80 MIN” value is reported as 52%.
As for `Cc1cc2c(cc1S(=O)(=O)N1CCC(C(=O)Nc3ccc4scnc4c3)CC1)C(C)CO2` (racemic) [Compound 145, (rac)-N-(benzo[d]thiazol-5-yl)-1-((3,6-dimethyl-2,3-dihydrobenzofuran-5-yl)sulfonyl)piperidine-a-carboxamide], the pIC50 is 5.86 and the “EC80 MIN” value is given as 3%.
In the same order, the values of `Cc1nn(C)cc1S(=O)(=O)N1CC[C@@H](C(=O)Nc2ccc3scnc3c2)C[C@H]1C` (racemic) [Compound 98, cis-(rac)-,N^_ (benzo[d]thiazol-5-yl)-1-((1,3-dimethyl-1H-pyrazol-4-yl)sulfonyl)-2-methylpiperidine-4-carboxamide] are 6.49 and 3%.
As to `O=C(Nc1ccc2scnc2c1)C1CCN(S(=O)(=O)c2ccccc2OC(F)(F)F)CC1` [Compound 53, N-(benzo[d]thiazol-5-yl)-1-((2-(trifluoromethoxy)phenyl)sulfonyl)piperidine-4-carboxamide], the pIC50 was 5.39 and the “EC80 MIN” value worked out at 4%.
In the case of `C[C@@H]1CN(S(=O)(=O)c2ccc(Cl)nc2)CC[C@@H]1C(=O)Nc1ccc2scnc2c1` (racemic) [Compound 94, cis-(rac)-N-(benzo[d]thiazol-5-yl)-1-((6-chloropyridin-3-yl)sulfonyl)-3-methylpiperidine-4-carboxamide], the pIC50 was 5.34 and the “EC80 MIN” value is reported as 4%.
In the case of `Cc1cc2c(cc1S(=O)(=O)N1CCC(C(=O)Nc3ccc4scnc4c3)CC1)OCO2` [Compound 49, N-(benzo[d]thiazol-5-yl)-1-((6-methylbenzo[d][1,3]dioxol-5-yl)sulfonyl)pipcridinc-4-carboxamide], the pIC50 was below 5.00 and the “EC80 MIN” value is 8%.
Turning to `O=C(Nc1ccc2scnc2c1)C1(F)CCN(S(=O)(=O)c2cccnc2)CC1` [Compound 114, N-(benzo[d]thiazol-5-yl)-4-fluoro-1-(pyridin-3-ylsulfonyl)piperidine-4-carboxamide], the pIC50 was 5.69 and the “EC80 MIN” value stood at 4%.
On the same counts, the results for `O=C(Nc1ccc2scnc2c1)C1CCN(S(=O)(=O)c2ccccc2-c2ccno2)CC1` [Compound 155, N-(benzo[d]thiazol-5-yl)-1-((2-(isoxazol-5-yl)phenyl)sulfonyl)piperidine-4-carboxamide] are below 5.00 and 54%.
With `O=C(Nc1cnc2cc[nH]c2c1)C1CCN(S(=O)(=O)c2ccc3c(c2)CCO3)CC1` [Compound 89, 1-((2,3-dihydrobenzofuran-5-yl)sulfonyl)-N-(1H-pyrrolo[3,2-b]pyridin-6-yl)piperidine-4-carboxamide], the pIC50 is below 5.00 and the “EC80 MIN” value is reported as 79%.
